Measurements: patent US6114310A, “Efflux pump inhibitors” (priority 1998, dated 2000)

Tested on: Pseudomonas aeruginosa PAM1001
Experiment: microbe, parasite or virus in culture
Type: cell-based
Method: The activity of efflux pump inhibitors (EPI) in combination with fluoroquinolones, such as levofloxacin, is assessed by the checkerboard assay (Antimicrobial Combinations. In Antibiotics in Laboratory Medicine, Ed. Victor Lorian, M. D., Fourth edition, 1996, pp 333-338) using broth microdilution method performed as recommended by the NCCLS (National Committee for Clinical Laboratory Standards (NCCLS). 1997. Methods for Dilution of Antimicrobial Susceptibility Tests for Bacteria That Grow Aerobically--Fourth Edition; Approved Standard. NCCLS Document M7-A4, Vol 17 No.2). The test organism used is Pseudomonas aeruginosa PAM1001.
In this assay, multiple dilutions of two drugs, namely the EPI and levofloxacin, are being tested, alone and in combination, at concentrations equal to, above and below their respective minimal inhibitory concentrations (MICs).
Stock solutions are further diluted, according to the needs of a particular assay, in Mueller Hinton Broth (MHB). Stock solution can be stored at -80° C. Quinolones are solubilized according to the instructions of the manufacturers, at a concentration of 1 mg/ml. They are then further diluted in MHB. Stock solution can be stored at -80° C.
The checkerboard assay is performed in microtiter plates. Levofloxacin is diluted in the x axis, each column containing a single concentration of levofloxacin. The EPI is diluted in the y axis, each row containing an equal concentration of EPI. The result of these manipulations is that each well of the microtiter plate contains a unique combination of concentrations of the two agents. Each EPI are tested independently.
The assay is performed in MHB with a final bacterial inoculum of 5×10^5 CFU/ml (from an early-log phase culture). Microtiter plates are incubated during 20 h at 35° C. and are read using a microtiterplate reader (Molecular Devices) at 650 nm as well as visual observation using a microtiterplate reading mirror.

[1] = Table 1, EPI Conc. μg/ml (number not given; column between 10 and 40 μg/ml)
[2] = Table 2, EPI Conc. μg/ml (number not given; column between 10 and 40 μg/ml)
[3] = Table 3, EPI Conc. μg/ml (number not given; column between 10 and 40 μg/ml)
[4] = Table 4, EPI Conc. μg/ml (number not given; column between 10 and 40 μg/ml)

Substance	Levofloxacin MIC Against P. aeruginosa PAM1001 in Presence of Efflux Pump Inhibitor (EPI), Minimum Inhibitory Concentration (Table 1, EPI Conc. 0 μg/ml)	Levofloxacin MIC Against P. aeruginosa PAM1001 in Presence of Efflux Pump Inhibitor (EPI), Minimum Inhibitory Concentration (Table 1, EPI Conc. 0.625 μg/ml)	Levofloxacin MIC Against P. aeruginosa PAM1001 in Presence of Efflux Pump Inhibitor (EPI), Minimum Inhibitory Concentration (Table 1, EPI Conc. 5 μg/ml)	Levofloxacin MIC Against P. aeruginosa PAM1001 in Presence of Efflux Pump Inhibitor (EPI), Minimum Inhibitory Concentration (Table 1, EPI Conc. 10 μg/ml)	Levofloxacin MIC Against P. aeruginosa PAM1001 in Presence of Efflux Pump Inhibitor (EPI), Minimum Inhibitory Concentration (Table 1, EPI Conc. 40 μg/ml)	Levofloxacin MIC Against P. aeruginosa PAM1001 in Presence of Efflux Pump Inhibitor (EPI), Minimum Inhibitory Concentration (Table 1, EPI Conc. […])	Levofloxacin MIC Against P. aeruginosa PAM1001 in Presence of Efflux Pump Inhibitor (EPI), Minimum Inhibitory Concentration [1]	Levofloxacin MIC Against P. aeruginosa PAM1001 in Presence of Efflux Pump Inhibitor (EPI), Minimum Inhibitory Concentration (Table 2, EPI Conc. 0 μg/ml)	Levofloxacin MIC Against P. aeruginosa PAM1001 in Presence of Efflux Pump Inhibitor (EPI), Minimum Inhibitory Concentration (Table 2, EPI Conc. 0.625 μg/ml)	Levofloxacin MIC Against P. aeruginosa PAM1001 in Presence of Efflux Pump Inhibitor (EPI), Minimum Inhibitory Concentration (Table 2, EPI Conc. 5 μg/ml)	Levofloxacin MIC Against P. aeruginosa PAM1001 in Presence of Efflux Pump Inhibitor (EPI), Minimum Inhibitory Concentration (Table 2, EPI Conc. 10 μg/ml)	Levofloxacin MIC Against P. aeruginosa PAM1001 in Presence of Efflux Pump Inhibitor (EPI), Minimum Inhibitory Concentration (Table 2, EPI Conc. 40 μg/ml)	Levofloxacin MIC Against P. aeruginosa PAM1001 in Presence of Efflux Pump Inhibitor (EPI), Minimum Inhibitory Concentration (Table 2, EPI Conc. […])	Levofloxacin MIC Against P. aeruginosa PAM1001 in Presence of Efflux Pump Inhibitor (EPI), Minimum Inhibitory Concentration [2]	Levofloxacin MIC Against P. aeruginosa PAM1001 in Presence of Efflux Pump Inhibitor (EPI), Minimum Inhibitory Concentration (Table 3, EPI Conc. 0 μg/ml)	Levofloxacin MIC Against P. aeruginosa PAM1001 in Presence of Efflux Pump Inhibitor (EPI), Minimum Inhibitory Concentration (Table 3, EPI Conc. 0.625 μg/ml)	Levofloxacin MIC Against P. aeruginosa PAM1001 in Presence of Efflux Pump Inhibitor (EPI), Minimum Inhibitory Concentration (Table 3, EPI Conc. 5 μg/ml)	Levofloxacin MIC Against P. aeruginosa PAM1001 in Presence of Efflux Pump Inhibitor (EPI), Minimum Inhibitory Concentration (Table 3, EPI Conc. 10 μg/ml)	Levofloxacin MIC Against P. aeruginosa PAM1001 in Presence of Efflux Pump Inhibitor (EPI), Minimum Inhibitory Concentration (Table 3, EPI Conc. 40 μg/ml)	Levofloxacin MIC Against P. aeruginosa PAM1001 in Presence of Efflux Pump Inhibitor (EPI), Minimum Inhibitory Concentration [3]	other results
D-Lysyl-β-N-(4-Methylphenethyl)alanine Quinoline-2-amide TFA [Example 22]	4 µg/mL	4 µg/mL	2 µg/mL	1 µg/mL	0.125 µg/mL	4 µg/mL	0.125 µg/mL	4 µg/mL	4 µg/mL	1 µg/mL	0.25 µg/mL	0.03 µg/mL	4 µg/mL	0.06 µg/mL	4 µg/mL	4 µg/mL	1 µg/mL	0.125 µg/mL	0.06 µg/mL	0.03 µg/mL	Levofloxacin MIC Against P. aeruginosa PAM1001 in Presence of Efflux Pump Inhibitor (EPI), Minimum Inhibitory Concentration (Table 4, EPI Conc. 0 μg/ml): 4 µg/mL; Levofloxacin MIC Against P. aeruginosa PAM1001 in Presence of Efflux Pump Inhibitor (EPI), Minimum Inhibitory Concentration (Table 4, EPI Conc. 0.625 μg/ml): 4 µg/mL; Levofloxacin MIC Against P. aeruginosa PAM1001 in Presence of Efflux Pump Inhibitor (EPI), Minimum Inhibitory Concentration (Table 4, EPI Conc. 5 μg/ml): 4 µg/mL; Levofloxacin MIC Against P. aeruginosa PAM1001 in Presence of Efflux Pump Inhibitor (EPI), Minimum Inhibitory Concentration (Table 4, EPI Conc. 10 μg/ml): 2 µg/mL; Levofloxacin MIC Against P. aeruginosa PAM1001 in Presence of Efflux Pump Inhibitor (EPI), Minimum Inhibitory Concentration (Table 4, EPI Conc. 40 μg/ml): 0.50 µg/mL; Levofloxacin MIC Against P. aeruginosa PAM1001 in Presence of Efflux Pump Inhibitor (EPI), Minimum Inhibitory Concentration (Table 4, EPI Conc. […]): 4 µg/mL; Levofloxacin MIC Against P. aeruginosa PAM1001 in Presence of Efflux Pump Inhibitor (EPI), Minimum Inhibitory Concentration [4]: 1 µg/mL
D-Lysyl-β-N-(Cyclohexylmethyl)alanine Quinoline-3-amide Trifluoroacetate [Example 18]	4 µg/mL	4 µg/mL	4 µg/mL	2 µg/mL	0.25 µg/mL	4 µg/mL	0.50 µg/mL	4 µg/mL	4 µg/mL	4 µg/mL	2 µg/mL	0.125 µg/mL	4 µg/mL	0.125 µg/mL	4 µg/mL	4 µg/mL	1 µg/mL	0.50 µg/mL	0.03 µg/mL	0.03 µg/mL	Levofloxacin MIC Against P. aeruginosa PAM1001 in Presence of Efflux Pump Inhibitor (EPI), Minimum Inhibitory Concentration (Table 4, EPI Conc. 0 μg/ml): 4 µg/mL; Levofloxacin MIC Against P. aeruginosa PAM1001 in Presence of Efflux Pump Inhibitor (EPI), Minimum Inhibitory Concentration (Table 4, EPI Conc. 0.625 μg/ml): 4 µg/mL; Levofloxacin MIC Against P. aeruginosa PAM1001 in Presence of Efflux Pump Inhibitor (EPI), Minimum Inhibitory Concentration (Table 4, EPI Conc. 5 μg/ml): 2 µg/mL; Levofloxacin MIC Against P. aeruginosa PAM1001 in Presence of Efflux Pump Inhibitor (EPI), Minimum Inhibitory Concentration (Table 4, EPI Conc. 10 μg/ml): 0.50 µg/mL; Levofloxacin MIC Against P. aeruginosa PAM1001 in Presence of Efflux Pump Inhibitor (EPI), Minimum Inhibitory Concentration (Table 4, EPI Conc. 40 μg/ml): 0.25 µg/mL; Levofloxacin MIC Against P. aeruginosa PAM1001 in Presence of Efflux Pump Inhibitor (EPI), Minimum Inhibitory Concentration (Table 4, EPI Conc. […]): 4 µg/mL; Levofloxacin MIC Against P. aeruginosa PAM1001 in Presence of Efflux Pump Inhibitor (EPI), Minimum Inhibitory Concentration [4]: 0.125 µg/mL
